Test results from patent US20030228672A1, “Sorbitol dehydrogenases of ketogulonigenium species, genes and methods of use thereof” (priority 2002, published 2003).

B1: SDH2: sorbitol dehydrogenase of K. robustum ADM 86-96, 579 amino acids (SEQ ID NO:7) (protein, listed as Ketogulonigenium sp.)
chain: MKTKSFLFAGVAALASYGTIALADVTPVTDELLANPPAGEWISYGRNQENYRHSPLNQITPENVGQLQLVWARGMNAGKVQVTPLIHDGVMYLANPGDIIQAIDAKTGDLIWEHRRQLPNVATLNSFGEPIRGIALYGTNVYFVSWDNHLVALDAATGQVTFDVDRGQGEDMVSNSSGPIVANGVIVAGSTCQYSPFGCFVSGHDATTGEELWRNYFIPKAGEEGDETWGNDYEARWMTGVWGQITYDPVTNLVFYGSSAVGPASETQRGTTGGTMYGTNTRFAVRPDTGEIVWRHQTLPRDNWDQECTFEMMVANVDVQPSADMDGLKSINPNAATGERRVLTGVPCKTGTMWQFDAETGEFLWARDTNYQNMISSIDETGLVTVNEDIILKDLDTDYRICPTFLGGRDWPSASLNPDSGIYFIPLNNACADLAAVDQEFTAMDVYNTSATYLLAPEKENMGRIDAIDISTGKTLWSVERLASNYSPVLSTAGGVLFNGGSDRYFRALSEETGETLWQTRLATVASGQAVSYELDGVQYIAIAGGGTTYGAVQNRPLAEPVDSTSIGNAVYVFALPQQ

Experiments:
[1] = tested on: dehydrogenase enzyme activity in cellular fractions; test: Enzyme assays with cellular fractions employing nicotinamide cofactors; format: biochemical, K. robustum ADM X6L and Ketogulonigenium sp. ADM 291-19; conditions: different substrates, either strain
[2] = tested on: dehydrogenase enzyme activity (SDH) of Ketogulonigenium sp. ADM 291-19; test: Enzyme activity in cellular fractions, Ferric-Dupanol method (localization); format: biochemical
Procedure: (§1) Cells were harvested by centrifugation at 12,000 g for 10 min, washed once with 10 mM Tris·HCl buffer (pH 8.0) and disrupted by sonication in a Branson Sonifier 450 for 15 min at 50% duty cycle in ice. The homogenate thus prepared was centrifuged at 12,000 g for 5 min to remove the cell debris. The resulting supernatant was centrifuged at 100,000 g for 90 min to get the supernatant as soluble fraction and the precipitate as crude membrane fraction. The crude membrane fraction was solubilized with 1.5% n-octyl glucoside by stirring for 2 hours at 4° C. The resultant suspension was centrifuged at 12,000 g for 10 min to give a supernatant, designated as solubilized membrane fraction.
(§2) Enzyme activity was determined also by the Ferric-Dupanol method (Wood, W. A. et al., Meth. Enzymol., 5, 287 (1962)). The enzyme was preincubated for 5 min at 25° C. The reaction was started by addition of 10 mM (final conc.) potassium ferricyanide and 250 mM (final conc.) D-sorbitol, L-sorbose, or glyoxal. After an appropriate time, the reaction was stopped by adding the ferric sulfate-Dupanol solution (Fe2(SO4)3.nH2O 5 g/l, Dupanol (sodium lauryl sulfate) 3 g/l and 85% phosphoric acid 95 ml/l) and the absorbance of the Prussian color developed was determined at 660 nm in a spectrophotometer.
(§3) Enzyme activities towards D-sorbitol, L-sorbose and glyoxal in different cellular fractions were determined for enzyme localization in K. robustum ADM X6L and Ketogulonigenium sp. ADM 291-19. In both cases, most of the enzyme activity detected in crude cell extract was found in the soluble fraction and the activity in solubilized membrane fraction was negligible when assayed with Ferric-Dupanol method.

[3] = tested on: dehydrogenase enzyme activity (SDH) of K. robustum ADM X6L; test: as above; format: biochemical, Ketogulonigenium robustum ADM X6L
Procedure: as §1, §2, §3

purified SDH enzymes = test: Activity of the purified SDH enzymes toward substrates; format: biochemical, K. robustum ADM X6L and Ketogulonigenium sp. ADM 291-19; conditions: purified SDH enzymes of both strains
Procedure: (§4) First, the periplasmic proteins from the cells of K. robustum ADM X6L and Ketogulonigenium sp. ADM 291-19 obtained in Step 1 of Example 1 were prepared by osmotic shock fractionation as described in Step 3 of Example 1. About 50 ml of osmotic shock fluid containing periplasmic proteins was loaded onto a DEAE-TSK 650 (S) (Merck) column (2.5×15 cm) previously equilibrated with 10 mM Tris·HCl buffer (pH 8.0). The column was first washed with 80 ml of 10 mM Tris·HCl buffer (pH 8.0) containing 0.1 M NaCl, followed by a gradient elution with 600 ml of the same buffer containing 0.1-0.5 M NaCl. Fractions containing 5 ml of eluant were collected and assayed for the SDH enzyme activities with D-sorbitol, L-sorbose and glyoxal as substrate. […] At about 0.15 M NaCl, eluted red fractions that probably contained cytochrome c.
(§5) Active fractions eluted from DEAE column were pooled and further purified by gel filtration column chromatography. The active fractions were concentrated by about 20 fold with ultrafiltration in Centricon 30 (Amicon). The concentrate was loaded onto Superose 12 (Pharmacia) and eluted isocratically with 50 mM sodium phosphate buffer (pH 7.0) containing 0.15 M NaCl.
(§6) The purified enzymes were active toward D-sorbitol, L-sorbose and glyoxal.

SDH = SDH activities in osmotic shock fractions, PMS-DCIP method; format: biochemical; conditions: for SDH activity, Osmotic Shock Fluid: Osmotic Shock Fluid (periplasmic fraction); for SDH activity, Pellet Sonicate: Pellet Sonicate (cytoplasm and cytoplasmic membrane); for SDH activity, Tris-Sucrose Wash: Tris-Sucrose Wash (periplasmic fraction)
Procedure: (§7) For more detailed localization study, periplasmic fraction was enriched by the method of osmotic shock (Neu, H. C. and Heppel, L. A., J. Biol. Chem., 240:3685 (1965)). Wet cells were resuspended at about 0.1 g/ml in 20% sucrose-0.03 M Tris·HCl buffer (pH 8.0) at room temperature. Di-sodium EDTA was added to 1 mM and the flask was shaken at 180 rpm at room temperature for 10 min. After centrifugation at 16,000 g for 20 min at 4° C., the supernatant was removed and the pellet was rapidly mixed with cold distilled water of the same volume as the original cell suspension and shaken in ice bucket in a shaker for 10 min. The mixture was centrifuged again to obtain the supernatant called “osmotic shock fluid”. The pellet was sonicated in the same buffer, centrifuged and the supernatant was obtained as “pellet sonicate”.
(§8) The dehydrogenase enzyme activity was assayed spectrophotometrically using 2,6-dichlorophenol indophenol (DCIP) as an artificial electron acceptor and phenazine methosulphate (PMS) as an electron mediator. The reaction mixture contained 50 mM Tris·HCl buffer (pH 8.0), 10 mM MgCl2, 5 mM CaCl2, 5 mM KCN, 0.1 mM PMS, 0.12 mM DCIP, a substrate as D-sorbitol (250 mM), L-sorbose (250 mM) or glyoxal (50 mM) and enzyme solution in a total volumn of 1.0 ml. The rate of decrease in absorbance at 522 nm was determined. One unit of enzyme activity was defined as the amount of enzyme catalyzing reduction of 1 μmol of DCIP per minute.
(§9) For further localization of the enzymes to periplasm or cytoplasm, periplasm was enriched by osmotic shock method as described in Step 3 of Example 1. In this method, the Tris-Sucrose wash and the osmotic shock fluid represent the periplasmic fraction and the pellet sonicate represents the cytoplasm and the cytoplasmic membrane. […] The remaining activity in pellet sonicate could be due to the incomplete release of periplasm by osmotic shock. Typical enzyme activity assay for SDH and β-galactosidase for fractions obtained by osmotic shock fractionation is shown in Table 3.

[4] = tested on: purified SDH of Ketogulonigenium sp. ADM 291-19; test: Substrate specificity of purified SDH, PMS-DCIP method; format: biochemical; conditions: substrate 250 mM, 1-Propanol = 100
Procedure: The dehydrogenase enzyme activity was assayed spectrophotometrically using 2,6-dichlorophenol indophenol (DCIP) as an artificial electron acceptor and phenazine methosulphate (PMS) as an electron mediator. […] The rate of decrease in absorbance at 522 nm was determined. One unit of enzyme activity was defined as the amount of enzyme catalyzing reduction of 1 μmol of DCIP per minute.
as §4, §5, §6

[5] = tested on: purified SDH of K. robustum ADM X6L; test: as above; format: biochemical, Ketogulonigenium robustum ADM X6L; conditions: substrate 250 mM, 1-Propanol = 100
Procedure: as §8, §4, §5, §6

β-galactosidase = test: β-Galactosidase activity in osmotic shock fractions (intracellular enzyme marker); format: biochemical; conditions: High Sensitivity β-Galactosidase Assay Kit
Procedure: as §7, §9

[6] = tested on: K. robustum ADM X6L transformants; test: Bioconversion of L-sorbose by transformants, HPLC of culture supernatant; format: cell-based, Ketogulonigenium robustum ADM X6L
Procedure: (§10) For expression of the three SDH genes in K. robustum strains, the genes with their own promoters were subcloned into the vector, pXH2/K5. These plasmids were transformed into the strains, K. robustum ADM X6L and 86-96 (NRRL B-21630), by electroporation. In this case, gene dosage effect may be expected due to the apparent high copy number of the plasmid pXH2/K5. The transformants were analyzed by HPLC for improved conversion activity upon overexpression of each SDH gene using D-sorbitol and L-sorbose as substrate.
The effect of overexpression of the three SDH genes in bioconversion activity was analyzed by HPLC analysis of the product profile of the culture supernatant of transformants in a medium containing D-sorbitol or L-sorbose as substrate. The transformants were cultivated overnight in RM medium containing 20 μg/ml of Kanamycin. This overnight culture was used to inoculate the 25 ml RM medium (supplemented with 20 μg/ml of Kanamycin) containing 20 g/l of D-sorbitol or 20 g/l of L-sorbose as substrate instead of mannitol. The culture supernatant samples were taken in a 12-hour interval and were analyzed by HPLC (Gilson HPLC with RI detector (ERC-7515A, ERC Inc.)) equipped with Asted XL automatic sample injector. […] The peaks were identified and the concentration was determined by comparison with those of the standards using glycerol as internal standard. […]

[7] = tested on: K. robustum ADM X6L transformants; test: Bioconversion of D-sorbitol by transformants, HPLC of culture supernatant; format: cell-based, Ketogulonigenium robustum ADM X6L; conditions: D-sorbitol as substrate
Procedure: as §10
The effect of overexpression of the three SDH genes in bioconversion activity was analyzed by HPLC analysis of the product profile of the culture supernatant of transformants in a medium containing D-sorbitol or L-sorbose as substrate. The transformants were cultivated overnight in RM medium containing 20 μg/ml of Kanamycin. This overnight culture was used to inoculate the 25 ml RM medium (supplemented with 20 μg/ml of Kanamycin) containing 20 g/l of D-sorbitol or 20 g/l of L-sorbose as substrate instead of mannitol. The culture supernatant samples were taken in a 12-hour interval and were analyzed by HPLC (Gilson HPLC with RI detector (ERC-7515A, ERC Inc.)) equipped with Asted XL automatic sample injector. Samples were loaded on two 2 mm×300 mm×7.8 mm Aminex HPX-87H columns (BioRad) arranged in series to provide a total column length of 600 mm. The column was run at 50° C. at a flow rate of 0.5 ml/min. The peaks were identified and the concentration was determined by comparison with those of the standards using glycerol as internal standard.
K. robustum ADM X6L transformants harboring the pXSDH1, pXSDH2 or pXSDH3 were cultivated with D-sorbitol or L-sorbose as substrate. HPLC analysis of the products from D-sorbitol (Table 10) or L-sorbose (Table 11) is shown below. A transformant harboring pXH2 served as control.

Molecule | nicotinamide cofactor dependence (in words) [1] | enzyme activity, Cell Free Extract [2] | enzyme activity, Membrane Fraction [2] | enzyme activity, Soluble Fraction [2] | enzyme activity, Cell Free Extract [3] | enzyme activity, Membrane Fraction [3] | enzyme activity, Soluble Fraction [3] | activity of the purified enzymes toward the substrate (in words) (purified SDH enzymes) | SDH activity, Osmotic Shock Fluid (SDH) | SDH activity, Pellet Sonicate (SDH) | SDH activity, Tris-Sucrose Wash (SDH) | % relative activity, ADM291-19 [4] [%] | % relative activity, ADM X6L [5] [%] | β-Galactosidase Activity, Osmotic Shock Fluid (β-galactosidase; Osmotic Shock Fluid) [nmol/min] | β-Galactosidase Activity, Pellet Sonicate (β-galactosidase; Pellet Sonicate) [nmol/min] | β-Galactosidase Activity, Tris-Sucrose Wash (β-galactosidase; Tris-Sucrose Wash) [nmol/min] | improvement of 2KLG production from L-sorbose upon overexpression ([6]; flask scale experiment, versus pXH2 control) | 2KLG production from L-sorbose upon overexpression (in words) ([6]; flask scale experiments) | products formed upon overexpression with D-sorbitol as substrate (in words) [7]
NC(=O)c1ccc[n+]([C@@H]2O[C@H](COP(=O)([O-])OP(=O)(O)OC[C@H]3O[C@@H](n4cnc5c(N)ncnc54)[C@H](O)[C@@H]3O)[C@@H](O)[C@H]2O)c1 [AND] | did not show any sign of nicotinamide cofactor dependence | – | – | – | – | – | – | – | – | – | – | – | – | – | – | – | – | – | –
OC[C@@H](O)[C@@H](O)[C@H](O)[C@@H](O)CO [D-sorbitol] | – | 0.66 ΔOD/min/2 μl enzyme | 0.00 ΔOD/min/2 μl enzyme | 0.65 ΔOD/min/2 μl enzyme | 0.92 ΔOD/min/4 μl enzyme | 0.01 ΔOD/min/4 μl enzyme | 0.90 ΔOD/min/4 μl enzyme | active | 0.45 ΔOD/min/50 μl enzyme | 0.68 ΔOD/min/50 μl enzyme | 0.31 ΔOD/min/50 μl enzyme | 12.4 | 12.6 | – | – | – | – | – | –
O=C(CO)[C@@H](O)[C@H](O)[C@@H](O)CO [L-sorbose] | – | 0.55 ΔOD/min/2 μl enzyme | 0.00 ΔOD/min/2 μl enzyme | 0.53 ΔOD/min/2 μl enzyme | 0.64 ΔOD/min/4 μl enzyme | 0.01 ΔOD/min/4 μl enzyme | 0.61 ΔOD/min/4 μl enzyme | active | 0.20 ΔOD/min/50 μl enzyme | 0.43 ΔOD/min/50 μl enzyme | 0.14 ΔOD/min/50 μl enzyme | 8.8 | 8.7 | – | – | – | – | – | –
O=S1(=O)OC(c2ccc(O)c(Cl)c2)(c2ccc(O[C@@H]3O[C@H](CO)[C@H](O)[C@H](O)[C@H]3O)c(Cl)c2)c2ccccc21 (stereo partly drawn) [chlorophenol red-β-D-galactopyranoside] | – | – | – | – | – | – | – | – | – | – | – | – | – | 0.057 | 2.2 | 0.043 | – | – | –
O=CC=O [glyoxal] | – | 0.61 ΔOD/min/2 μl enzyme | 0.00 ΔOD/min/2 μl enzyme | 0.52 ΔOD/min/2 μl enzyme | 0.39 ΔOD/min/4 μl enzyme | 0.00 ΔOD/min/4 μl enzyme | 0.50 ΔOD/min/4 μl enzyme | active | 0.43 ΔOD/min/50 μl enzyme | 0.76 ΔOD/min/50 μl enzyme | 0.36 ΔOD/min/50 μl enzyme | 16.1 | 15.1 | – | – | – | – | – | –
B1 | – | – | – | – | – | – | – | – | – | – | – | – | – | – | – | – | 2-3 times | significantly improved | formation of 2-keto-D-gluconic acid (2KDG) as well as 2KLG
